Several values for one entry are separate records, joined by “and”; a condition that tells them apart may be missing. Equal entries are not always repeated.
Tested on: T2 soybean events expressing the indicated Amaranthus PPO2 variant transgene
Experiment: Soybean PPO inhibitor tolerance testing, injury score (Table C)
Type: in vivo, Soybean cv Jake
Conditions: V2 stage, 3 days after treatment, individual plants
Description: Soybean cv Jake is transformed as previously described by Siminszky et al., Phytochem Rev. 5:445-458 (2006). After regeneration, transformants are transplanted to soil in small pots, placed in growth chambers (16 hr day/8 hr night; 25° C. day/23° C. night; 65% relative humidity; 130-150 microE m-2 s-1) and subsequently tested for the presence of the T-DNA via Taqman analysis. After a few weeks, healthy, transgenic positive, single copy events are transplanted to larger pots and allowed to grow in the growth chamber. An optimal shoot for cutting is about 3-4 inches tall, with at least two nodes present. Each cutting is taken from the original transformant (mother plant) and dipped into rooting hormone powder (indole-3-butyric acid, IBA). The cutting is then placed in oasis wedges inside a bio-dome. The mother plant is taken to maturity in the greenhouse and harvested for seed. Wild type cuttings are also taken simultaneously to serve as negative controls. The cuttings are kept in the bio-dome for 5-7 days and then transplanted to 3 inch pots and then acclimated in the growth chamber for two more days. Subsequently, the cuttings are transferred to the greenhouse, acclimated for approximately 4 days prior to spray. […] g ai/ha saflufenacil plus 1% MSO and/or 25-200 g ai/ha 1,5-dimethyl-6-thioxo-3-(2,2,7-trifluoro-3-oxo-4-(prop-2-ynyl)-3,4-dihydro-2H-benzo[b][1,4]oxazin-6-yl)-1,3,5-triazinane-2,4-dione (CAS 1258836-72-4) plus 1% MSO. Other PPO inhibiting herbicides are also tested in a similar fashion for confirming cross resistance: flumioxazin, butafenacil, acifluorfen, lactofen, bifenox, sulfentrazone, methyl 2-[2-chloro-5-[3-chloro-5-(trifluoromethyl)-2-pyridyl]-4-fluoro-phenoxy]-2-methoxy-acetate, ethyl 2-[2-chloro-5-[3-chloro-5-(trifluoromethyl)-2-pyridyl]-4-fluoro-phenoxy]-2-methoxy-acetate, prop-2-ynyl 2-[2-chloro-5-[3-chloro-5-(trifluoromethyl)-2-pyridyl]-4-fluoro-phenoxy]-2-methoxy-acetate and photosynthesis inhibitor diuron as negative control. […]
The following gives a definition of the injury scores measured above: […]

With `COC(=O)C(OC)Oc1cc(-c2ncc(C(F)(F)F)cc2Cl)c(F)cc1Cl` (stereo not shown) [methyl 2-[2-chloro-5-[3-chloro-5-(trifluoromethyl)-2-pyridyl]-4-fluoro-phenoxy]-2-methoxy-acetate] the “injury on a 0-9 point scale” value (soybean T2, transgene L397E_F420M, 25 g ai/ha + 1% v/v MSO) was 1, the “injury on a 0-9 point scale” value (soybean T2, transgene L397E_F420M, 50 g ai/ha + 1% v/v MSO) was 3 and 4 and the “injury on a 0-9 point scale” value (soybean T2, transgene L397E_F420M, 100 g ai/ha + 1% v/v MSO) was 3 and 4 and 9. The “injury on a 0-9 point scale” value (soybean T2, transgene L397E_F420M, 200 g ai/ha + 1% v/v MSO) was 3 (2×) and 4, the “injury on a 0-9 point scale” value (soybean T2, transgene L397Q_F420M, 25 g ai/ha + 1% v/v MSO) was 1 and 0 and 9 and the “injury on a 0-9 point scale” value (soybean T2, transgene L397Q_F420M, 50 g ai/ha + 1% v/v MSO) was 9 and 1. The “injury on a 0-9 point scale” value (soybean T2, transgene L397Q_F420M, 100 g ai/ha + 1% v/v MSO) was 3, the “injury on a 0-9 point scale” value (soybean T2, transgene L397Q_F420M, 200 g ai/ha + 1% v/v MSO) was 3 and 9 and 4 and the “injury on a 0-9 point scale” value (soybean T2, transgene R128A_F420I event 1, 25 g ai/ha + 1% v/v MSO) was 0. The “injury on a 0-9 point scale” value (soybean T2, transgene R128A_F420I event 1, 50 g ai/ha + 1% v/v MSO) was 1 and 2 (2×), the “injury on a 0-9 point scale” value (soybean T2, transgene R128A_F420I event 1, 100 g ai/ha + 1% v/v MSO) was 2 (2×) and 3 and the “injury on a 0-9 point scale” value (soybean T2, transgene R128A_F420I event 1, 200 g ai/ha + 1% v/v MSO) was 4 (2×) and 3. For the same compound, the “injury on a 0-9 point scale” value (soybean T2, transgene R128A_F420I event 2, 25 g ai/ha + 1% v/v MSO) was 0 and 9, the “injury on a 0-9 point scale” value (soybean T2, transgene R128A_F420I event 2, 50 g ai/ha + 1% v/v MSO) was 3 (2×) and 4 and the “injury on a 0-9 point scale” value (soybean T2, transgene R128A_F420I event 2, 100 g ai/ha + 1% v/v MSO) was 1 and 3. For the same compound, the “injury on a 0-9 point scale” value (soybean T2, transgene R128A_F420I event 2, 200 g ai/ha + 1% v/v MSO) was 5 (2×) and 4, the “injury on a 0-9 point scale” value (soybean T2, transgene R128A_F420I event 3, 25 g ai/ha + 1% v/v MSO) was 0 and the “injury on a 0-9 point scale” value (soybean T2, transgene R128A_F420I event 3, 50 g ai/ha + 1% v/v MSO) was 1 and 2 and 0. The “injury on a 0-9 point scale” value (soybean T2, transgene R128A_F420I event 3, 100 g ai/ha + 1% v/v MSO) was 1 and 3, the “injury on a 0-9 point scale” value (soybean T2, transgene R128A_F420I event 3, 200 g ai/ha + 1% v/v MSO) was 4 and the “injury on a 0-9 point scale” value (soybean T2, transgene R128A_F420V, 25 g ai/ha + 1% v/v MSO) was 2 and 1. The “injury on a 0-9 point scale” value (soybean T2, transgene R128A_F420V, 50 g ai/ha + 1% v/v MSO) was 4 and 9, the “injury on a 0-9 point scale” value (soybean T2, transgene R128A_F420V, 100 g ai/ha + 1% v/v MSO) was 4 and the “injury on a 0-9 point scale” value (soybean T2, transgene R128A_F420V, 200 g ai/ha + 1% v/v MSO) was 9 and 4 and 5. The “injury on a 0-9 point scale” value (soybean, Non transgenic, 25 g ai/ha + 1% v/v MSO) was 9 (2×) and 8, the “injury on a 0-9 point scale” value (soybean, Non transgenic, 50 g ai/ha + 1% v/v MSO) was 9 and the “injury on a 0-9 point scale” value (soybean, Non transgenic, 100 g ai/ha + 1% v/v MSO) was 9. For the same compound, the “injury on a 0-9 point scale” value (soybean, Non transgenic, 200 g ai/ha + 1% v/v MSO) was 9 (2×) and 8.

From US11149030B2, “Plants having increased tolerance to herbicides” (BASF AGRO B.V., priority 2016, dated 2021)
